# US20260263584A1, “Modulating the Innate Immunity of RNA” (priority 2023, published 2026)
# Test system: Hela cells
# Type: cell-based, human
compound,measurement,value
"Cn1c(=O)n(C2CCC(=O)NC2=O)c2cccc(C#CCOC3CCN(C[C@H]4CC[C@H](n5cc(NC(=O)c6cnn7ccc(N8C[C@H]9C[C@@H]8CO9)nc67)c(C(F)F)n5)CC4)CC3)c21 (stereo partly drawn) [PF-07911620, N-{3-(difluoromethyl)-1-[(1S,4R)-4-({4-[(3-{1-[(3S)-2,6-dioxopiperidin-3-yl]-3-methyl-2-oxo-2,3-dihydro-1H-benzimidazol-4-yl}prop-2-yn-1-yl)oxy]piperidin-1-yl}methyl)cyclohexyl]-1H-pyrazol-4-yl}-5-[(1R,4R)-2-oxa-5-azabicyclo[2,2,1]heptan-5-yl]pyrazolo[1,5-a]pyrimidine-3-carboxamide]","frequency of HA-positive cells, higher than vehicle controls",5.5 fold
